Source: patent US20260023004A1, “SIGNAL ENHANCEMENT OF RESONANT SENSOR FOR CELL MEASUREMENTS” (lowa State University Research Foundation, Inc., priority 2022, published 2026)

System: HeLa cells
Experiment: Inhibition of HeLa cell growth monitored by resonant sensor frequency shift and microscope images
Type: cell-based
Conditions: Niclosamide at 15 μM in culture media
Experimental: To investigate the inhibition effect of cell growth on the sensor response, HeLa cells were first grown until a drastic resonant frequency shift was observed. FIG. 11 is a plot of resonant frequency as a function of time shown as curve 537. Four times are identified as 5, 6, 7, and 8. FIG. 12 is a cell image at time 5 of FIG. 11. Niclosamide was introduced at time 6 of FIG. 11 into the culture media at 15 μM. […] FIG. 13 is a cell image at time 6 of FIG. 11. FIG. 14 is a cell image at time 7 of FIG. 11. FIG. 15 is a cell image at time 8 of FIG. 11.

SMILES: O=C(Nc1ccc([N+](=O)[O-])cc1Cl)c1cc(Cl)ccc1O [Niclosamide]
- resonant frequency shift of sensor after introducing drug (HeLa cells grown until drastic resonant frequency shift): almost an instantaneous stop in the resonant frequency shift
- cell growth after introducing the drug (microscopic images) (HeLa cells): stop of cell growth
